Values after ≈ are worked out from the molar mass of the structure shown. Where a name gives a salt, the structure may show the parent alone. Read-outs that look alike come from different tables or passages of the source.
Key:
[1] = Cytotoxicity on mammalian cells (CCK-8), HEK293; type: cell-based; conditions: human, HEK293 cells; HEK293 cell line; 24 h
Method: (§1) Cytotoxicity test of bacterial sensitizers on mammalian cells. Cell viability was assessed by using Cell Counting Kit-8 (CCK-8, Dojindo, Japan). HEK293 or NIH3T3 cells were seeded in a 96-well plate one day before the experiment to reach 80% confluency. Cells were then incubated with various concentration of bacterial sensitizers at 37° C. with 5% CO2 for 24 h, then 10 μL of CCK-8 solution was added to each well, and the plate was incubated for an additional at 37° C. 2 h with 5% CO2. The optical density at 450 nm was recorded by plate reader; and the results were calculated as a percentage of viability compared with the untreated control.

[2] = system: B. subtilis; test: MIC determination and sensitization fold on B. subtilis; type: cell-based; conditions: B. subtilis; for Sensitization fold / Sensitization: erythromycin; for MIC: Bacillus subtilis, 24 h, compound alone, read-out: MIC; for Sensitization: compound up to 12 μM
[3] = Cytotoxicity on mammalian cells (CCK-8), NIH3T3; type: cell-based; conditions: mouse, NIH3T3 cells, 3T3 cell line
Method: as §1

[4] = system: E. coli (ATCC 25922); test: MIC determination, sensitization fold and FIC index on E. coli; type: cell-based; conditions: for Sensitization: compound up to 25 μM; for MIC: Escherichia coli; for sensitization activity: compound at up to 10 μM; for MIC of AB with MD-124: MD-124 concentration 5 μg/ml
Method: (§2) Bacteria culture and MICs determination: Gram-negative bacteria were cultured in Mueller Hinton II cation-adjusted broth. Gram-positive bacteria were cultured in LB broth. Mycobacterium smegmatis was cultured in Middlebrook 7H9 Broth. MICs of antibiotics itself were determined by performing two-fold serial dilutions of antibiotics. MICs of antibiotics in the presence of bacterial sensitizers were determined by performing two-fold serial dilutions of antibiotics with or without a constant concentration of bacterial sensitizers. The MICs tests were performed on 96-well plates with a final volume of 200 μl Mueller Hinton II cation-adjusted broth in each well. Each well was inoculated with 5×10^5 CFU/ml bacteria and was incubated for 24 h at 37° C. with continuous shaking of 200 rpm. The bacterial density was then determined by OD600. Bacterial growth %=OD600 of antibiotic treatment group/OD600 of antibiotic non-treatment group. MICs was determined as the concentrations that inhibit more than 90% of bacteria growth.
(§3) Sensitization fold determination and FIC index calculations: Sensitization fold=MIC of antibiotic only/MIC of antibiotic with bacterial sensitizer. […] Since the MICs were determined by performing two-fold serial dilutions of antibiotic, so the sensitization fold can is the times of 2.
FIC index between compound a and b was calculated according to the formula below: […]
FIC≤0.5: Synergy; FIC between 0.5 and 1: Additive; FIC between 1 and […]: no interaction; FIC >4: antagonism.
(§4) Bacteria strains (as indicated in Table 5B) were cultured with rifampicin at various concentrations in the presence or absence of 10 μM of the indicated compound for 20 h at 37° C. The MIC, sensitization, cytotoxicity, and MIC on mycobacteria were tested according to methods described herein. […] The sensitization activities of compounds on MRSA were tested using rifampicin. The sensitization activities of compounds on E. coli were tested using rifampicin.

[5] = system: MRSA (ATCC 33592); test: MIC determination and sensitization fold on MRSA; type: cell-based, methicillin-resistant Staphylococcus aureus; conditions: for Sensitization fold: rifampicin; for MIC: Staphylococcus aureus, 24 h
Method: Bacteria strains: E. coli (ATCC 25922), A. baumannii (ATCC 17978), K. pneumoniae (43816), S. maltophilia (ATCC 31559), S. typhimurium (ATCC 14028), C. werkmanii (ATCC 51114), S. aureus (ATCC 12600) and methicillin-resistant Staphylococcus aureus (MRSA, ATCC 33592) strains were purchased from ATCC. NR698 was provided.
as §2, §3, §4

[6] = system: NDM-1 expressing E. coli strain; test: microbe, parasite or virus in culture; type: cell-based
[7] = Cytotoxicity in H9c2 cells (CCK-8); type: cell-based; conditions: rat, H9c2 cells; H9c2 cell line
Method: The cytotoxicity in H9c2 (ATCC®CRL-1446™) cells was also determined. The H9c2 cells were maintained in DMEM (Dulbecco's Modified Eagle's Medium) supplemented with 10% fetal bovine serum (MidSci; S01520HI) and 1% penicillin-streptomycin (Sigma-Aldrich; P4333) at 37° C. with 5% CO2. The H9c2 cells were seeded in 96-well plate one day before the experiment. Different concentrations of di-amidine compounds were added into the H9c2 cells. The cells were then incubated with the compounds for 24 hours at 37° C. with 5% CO2. The cell viability was tested by the CCK-8. Specifically, after 24 hour incubation, 10 μL CCK-8 was added to each well. After 3 hours incubation at 37° C., the absorbance at 450 nm was recorded by a plate reader.

[8] = system: A. baumannii (ATCC 17978); test: MIC, sensitization fold and FIC index on A. baumannii; type: cell-based; conditions: A. baumannii towards the antibiotic
[9] = system: HEK293 cells; test: Cytotoxicity on mammalian cells (CCK-8), HEK293; type: cell-based; conditions: HEK293 cell line; 24 h
Method: as §1

[10] = ATCC25922, 24 h, E. coli, compound alone, read-out: MIC
[11] = NDM-1 expressing E. coli towards the antibiotic
[12] = E. coli towards the antibiotic, MD-124 5 μg/ml
[13] = ATCC25922, 24 h, E. coli (wild type), antibiotic alone, read-out: MIC of AB only

Cc1cc(CSc2ccc(C3=NCCN3)cc2)cc(CSc2ccc(C3=NCCN3)cc2)c1 [MD-118, 1,3-Bis {(4-(2-imidazolino))-thiophenoxymethyl}-5-methylbenzene dihydrochloride]
CC50 at 24 h [1]: 25 µM | Sensitization fold ([2]; compound at 3 μM): 4-fold at 3 μM | Sensitization fold ([2]; compound at 6 μM): 16-fold at 6 μM, | MIC [2]: > 25 µM | CC50 at 24 h [3]: 12.5 µM | Sensitization ([4]; E. coli, rifampicin): No effect up to 25 μM. | MIC [4, 10]: > 50 µM

Cc1cc(COc2cccc(C(=N)N)c2)cc(COc2cccc(C(=N)N)c2)c1 [MD-116, 3,3′-(((5-methyl-1,3-phenylene)bis(methylene))bis(oxy))dibenzimidamide dihydrochloride]
CC50 at 24 h [1]: > 100 µM | Sensitization fold ([2]; compound at 12 μM): 32-fold at 12 μM | Sensitization fold ([5]; MRSA, compound at 12.5 μM): 4-fold at 12.5 μM. | CC50 at 24 h [3]: > 100 µM | Sensitization fold ([4]; E. coli, rifampicin, compound at 25 μM): 8-fold at 25 μM | MIC ([4]; ATCC25922, 24 h): 100 µM

CC(C)NC(=N)c1ccc(OCc2cccc(COc3ccc(C(=N)NC(C)C)cc3)c2F)cc1 [MD-110, 1,3-Bis{(4-isopropylamidino)-phenoxymethyl}-2-fluorobenzene dihydrochloride]
CC50 at 24 h [1]: > 100 µM | Sensitization fold ([2]; compound at 6 μM): No effect at 6 μM. | MIC [2]: 25 µM | Sensitization fold ([5]; MRSA, compound at 4 μM): 16-fold at 4 μM. | CC50 at 24 h [3]: > 100 µM | Sensitization ([4]; E. coli, rifampicin): No effect up to 25 μM. | MIC [4, 10]: 25 µM

CC1(C)S[C@@H]2[C@H](NC(=O)[C@H](N)c3ccccc3)C(=O)N2[C@H]1C(=O)O [Ampicillin]
MIC on wild-type E.coli ([4]; antibiotic alone (Table 14)): 6 µg/mL | MIC of AB with 5 μg/ml MD-124 ([6]; NDM-1 expressing E. coli): 300 µg/mL | Sensitization fold with 5 μg/ml MD-124 [6, 11]: >1 fold | MFC of AB only ([6]; NDM-1 expressing E. coli, antibiotic alone): >300 µg/mL | MIC on NDM-1 over-expression E. coli ([6]; antibiotic alone (Table 14)): >300 µg/mL

Cc1cc(COc2ccc(C3=NCCN3)cc2)cc(COc2ccc(C3=NCCN3)cc2)c1 [MD-129, 1,3-Bis {(4-(2-imidazolino))-phenoxymethyl}-5-methylbenzene dihydrochloride]
CC50 at 24 h [1]: 50 µM | Sensitization fold ([2]; compound at 12 μM): 4-fold at 12 μM | MIC [2]: > 50 µM | CC50 at 24 h [7]: 25 µM | CC50 at 24 h [3]: 25 µM | Sensitization fold ([4]; 10 μM compound, rifampicin as the antibiotic (Table 6)): 1 fold | Sensitization ([4]; E. coli, rifampicin): No effect up to 25 μM | MIC [4, 10]: > 50 µM | sensitization activity ([4]; rifampicin): no sensitization activity

Cc1cc(COc2ccc(C3=NCCCN3)cc2)cc(COc2ccc(C3=NCCCN3)cc2)c1 [MD-113, 2,2′-((((5-methyl-1,3-phenylene)bis(methylene))bis(oxy))bis(4,1-phenylene))bis(1,4,5,6-tetrahydropyrimidine) dihydrochloride]
CC50 at 24 h [1]: > 100 µM | Sensitization [2]: No effect up to 12 μM. | MIC [2]: 50 µM | Sensitization fold ([5]; MRSA, compound at 12 μM): 4-fold at 12 μM. | Sensitization fold ([5]; MRSA, compound at 25 μM): 8-fold at 25 μM, | MIC [5]: > 50 µM | CC50 at 24 h [3]: > 100 µM | Sensitization ([4]; E. coli, rifampicin): No effect up to 25 μM. | MIC ([4]; ATCC25922, 24 h): > 100 µM | sensitization activity ([4]; rifampicin): no sensitization activity

COc1cc(Cc2cnc(N)nc2N)cc(OC)c1OC [Trimethoprim, reference compound]
Sensitization fold [4, 12]: 2 fold | MIC of AB with MD-124 ([4]; E. coli): 1.25 µg/mL | MIC [4, 13]: 2.5 µg/mL | Sensitization fold with 5 μg/ml MD-124 [8]: 2 fold

COc1cc(C(=N)N)ccc1OCc1cc(COc2ccc(C(=N)N)cc2OC)cc(C(C)(C)C)c1 [MD-114, 1,3-Bis {[4-amidino-2-methoxy)-phenoxymethyl]}-5-(tert-butyl)benzene dihydrochloride]
CC50 [9]: 100 µM | Sensitization fold ([2]; compound at 12 μM): 8-fold at 12 μM | MIC [2]: 25 µM | CC50 at 24 h [3]: 50 µM | Sensitization fold ([4]; E. coli, rifampicin, compound at 12.5 μM): 8-fold at 12.5 μM | MIC [4, 10]: 100 µM

CN(C)[C@@H]1C(O)=C(C(N)=O)C(=O)[C@@]2(O)C(O)=C3C(=O)c4c(O)cccc4[C@@](C)(O)[C@H]3C[C@@H]12 [Tetracycline, reference compound]
Sensitization fold [4, 12]: 2 fold | MIC of AB with MD-124 ([4]; E. coli): 0.6 µg/mL | MIC [4, 13]: 1.2 µg/mL | Sensitization fold with 5 μg/ml MD-124 [6]: 4 fold | Sensitization fold with 5 μg/ml MD-124 [8]: 2 fold

C[C@@H](O)[C@H]1C(=O)N2C(C(=O)O)=C(S[C@@H]3CN[C@H](C(=O)N(C)C)C3)[C@H](C)[C@H]12 [Meropenem, reference compound]
Sensitization fold [4, 12]: 1 fold | MIC of AB with MD-124 ([4]; E. coli): 0.063 µg/mL | MIC [4, 13]: 0.063 µg/mL | MIC ([4]; ATCC25922, antibiotic alone (Table 14), read-out: MIC on wild-type E.coli): 0.03 µg/mL | MIC ([6]; Escherichia coli, antibiotic alone (Table 14), read-out: MIC on NDM-1 over-expression E. coli): 12.5 µg/mL (≈ 32.6 µM) | Sensitization fold with 5 μg/ml MD-124 [6, 11]: 2 fold

NC[C@H]1O[C@H](O[C@H]2[C@H](O)[C@@H](O[C@H]3O[C@H](CO)[C@@H](O)[C@H](N)[C@H]3O)[C@H](N)C[C@@H]2N)[C@H](O)[C@@H](O)[C@@H]1O [Kanamycin]
Sensitization fold with 5 μg/ml MD-124 [8]: 2 fold

CC(C)NC(=N)c1ccc(OCc2cccc(COc3ccc(C(=N)NC(C)C)cc3F)c2F)c(F)c1 [MD-111, 1,3-Bis {(4-isopropylamidino-2-fluoro)-phenoxymethyl}-2-fluorobenzene dihydrochloride]
CC50 at 24 h [1]: > 100 µM | Sensitization [2]: No effect up to 12 μM. | MIC [2]: 25 µM | Sensitization fold ([5]; MRSA, compound at 6 μM): 8 -fold at 6 μM. | Sensitization fold ([5]; MRSA, compound at 12 μM): 16-fold at 12 μM, | MIC ([5]; MRSA, compound alone, read-out: MIC): 50 µM | CC50 at 24 h [3]: > 100 µM | Sensitization ([4]; E. coli, rifampicin): No effect up to 25 μM. | MIC [4, 10]: 50 µM

CCOc1ccc2ccccc2c1C(=O)N[C@@H]1C(=O)N2[C@@H]1SC(C)(C)[C@@H]2C(=O)O [Nafcillin, reference compound]
Sensitization fold [4, 12]: >4 fold | MIC of AB with MD-124 ([4]; E. coli): 75 µg/mL | MIC [4, 13]: > 300 µg/mL | Sensitization fold with 5 μg/ml MD-124 [8]: 2 fold

O=C(O)c1cn(C2CC2)c2cc(N3CCNCC3)c(F)cc2c1=O [Ciprofloxacin, reference compound]
Sensitization fold [4, 12]: 4 fold | MIC of AB with MD-124 ([4]; E. coli): 0.0125 µg/mL | MIC [4, 13]: 0.05 µg/mL | Sensitization fold with 5 μg/ml MD-124 [8]: 4 fold

Source: US20230105108A1, “COMPOUNDS FOR THE TREATMENT OF BACTERIAL INFECTIONS AND POTENTIATION OF ANTIBIOTICS” (GEORGIA STATE UNIVERSITY RESEARCH FOUNDATION, INC., priority 2019, published 2023)
